Experimental data as given in patent EP2669276A1 (Université de Strasbourg, priority 2012, dated 2013).
Values joined by “and” are separate entries in the source; they are usually repeats but may differ in a detail not shown here. Identical values can stand only once.

How the values were obtained:
hNPFF2 = target: T1, hNPFF2 (Homo sapiens, UniProt Q9Y5X5); test: Receptor binding assay with [3H]-FFRFamide on CHO cell membranes expressing SF-hNPFFR2
T1 construct: The cDNA encoding the full-length human NPFFR1 and human NPFFR2; expressed in transfected cells
Text: (§1) The cDNA encoding the full-length human NPFFR1 and human NPFFR2 were subcloned into the pcDNA3 expression vector (Invitrogen, Cergy Pontoise, France) using standard molecular biology methods. A sequence encoding a signal sequence and a Flag epitope was fused to the 5' coding sequence of both hNPFFR1 and hNPFFR2 cDNA according to (Guan et al., 1992) resulting in a SF-hNPFFR1 and SF-hNPFFR2 constructs. These contructs were stably transfected into CHO cells.
(§2) Membranes from CHO cells stably expressing SF-hNPFFR1 or SF-hNPFFR2 were prepared as described (Becker et al., 1999). SF-hNPFFR1 or SF-hNPFFR2 membranes (10µg) were incubated for 30 min at 25 °C in a final volume of 0.5 ml containing 50 mM HEPES pH 7.4, 1 mM CaCl2, 1 mM MgCl2, 0.1% bovine serum albumin, 10 nM and 3 nM [^3H]-FFRFamide (CEA, Paris; specific activity, 13,6 Ci/mmol) for […], respectively and the ligands to be tested. Non-specific binding was determined in presence of 1 µM neuropeptide FF for SF-hNPFFR2 and 1 µM neuropeptide VF for SF -hNPFFR1. Typical total and nonspecific binding were 1200 and 200 dpm, respectively for SF-hNPFFR1 and SF-hNPFFR2. Incubation mixtures were rapidly filtered and washed with 50 mM HEPES pH 7.4, 1 mM CaCl2, 1 mM MgCl2, on 96 wells GF/B unifilter (Perkin Elmer). Unifilter plates where then dryied for 1hr at 65°C. Bound radioactivity was determined by scintillation counting with 30 µl of scintillation cocktail (O-scint, Perkin Elmer) per well on a Topcount scintillation apparatus (Perkin Elmer).

hNPFF1 = target: T2, hNPFF1 (Homo sapiens, UniProt Q9GZQ6); test: Receptor binding assay with [3H]-FFRFamide on CHO cell membranes expressing SF-hNPFFR1
T2 construct: The cDNA encoding the full-length human NPFFR1 and human NPFFR2; expressed in transfected cells
Text: as §1, §2

[1] = test system: Fentanyl-induced hyperalgesia in rats; test: Fentanyl-induced hyperalgesia in rats (paw pressure vocalization test); assay type: in vivo; conditions: for fentanyl-induced hyperalgesia / development of fentanyl-induced hyperalgesia: rats, 30 min before fentanyl; for fentanyl-induced hyperalgesia: P < 0.001, Newman-Keuls test
[2] = test system: Fentanyl-induced hyperalgesia followed by carrageenan injection in rats; test: Fentanyl-induced hyperalgesia followed by carrageenan injection in rats; assay type: in vivo; conditions: 0.5 mg/kg s.c. 30 min before fentanyl at D0, carrageenan at D13, P < 0.001 Newman-Keuls test
hNPFFR1 [3] = target: T3, hNPFFR1 (Homo sapiens, UniProt Q9GZQ6); test: cAMP measurement (forskolin-stimulated cAMP accumulation) in CHO cells expressing SF-hNPFFR1; assay type: cell-based
T3 construct: The cDNA encoding the full-length human NPFFR1 and human NPFFR2; expressed in transfected cells
Experimental: Functional coupling of SF-hNPFFR1 and SF-hNPFFR2 to adenylyl cyclase was assessed by measuring the inhibitory effects of agonist/antagonist and related compounds on forskolin-stimulated cAMP accumulation in CHO cells stably expressing both receptors as previously described (Gicquiaux et al., 2001) with minor modifications. Briefly, 80% confluent CHO cells expressing SF-hNPFFR1 or SF-hNPFFR2 were harvested and seeded in 96-well plates at an initial density of 10,000 cells per well. After 1-2 days of culture (90% confluency), cells were washed with 0.2 ml of PBS (in mM: 137 NaCl, 2.7 KCl, 0.9 CaCl2, 0.5 MgCl2, 6.5 Na2HPO4, 1.5 KH2PO4, pH 7.2), and then incubated at 37°C for 10 min with 0.2 ml assay buffer (in mM: 150 NaCl, 5 KCl, 2.5 CaCl2, 1.2 KH2PO4, 1.2 MgSO4, 25 NaHCO3, 10 HEPES, 10 mg/ml BSA, pH 7.4). […] The reaction was stopped by addition of 0.04 ml volume ice-cold 0.5 M HCl and cells were frozen (-80°C 1 hour) disrupted by sonication and suspensions were centrifuged at 2,000 × g for 15 min. The resulting supernatants were stored at -20°C until determination of cAMP by radioimmunoassay as described (Cailla et al., 1973). For antagonist evaluation, dose response curves of agonists (NPVF and NPFF for hNPFFR1 and hNPFFR2, respectively) were performed in the presence of fixed concentrations of antagonist. […]

hNPFFR1 [4] = target: T3, hNPFFR1; test: [35S]GTPγS binding measurement on SF-hNPFFR1 membranes; assay type: biochemical; conditions: tested alone, up to 50 µM
Experimental: For [^35S]GTPγS binding experiments, SF-hNPFFR1 or SF-hNPFFR2 membrane proteins (5 µg) were incubated for 45 min at 30 °C in a final volume of 0.5 ml containing 20 mM HEPES pH 7.4, 100 mM NaCl, 3 mM MgCl2, 10 µM GDP, 10 µg/ml Saponin, 0.1 nM [^35S]GTPγS and ligands. Non-specific binding was determined in the presence of 10 µM GTPγS. Incubation mixtures were rapidly filtered and washed with 10 mM HEPES pH 7.4, 0,5 M NaCl, 1,5 mM MgCl2, on 96 wells GF/B unifilter (Perkin Elmer). Unifilter plates where then dryied for 1hr at 65°C. Bound radioactivity was determined by scintillation counting with 30 µl of scintillation cocktail (O-scint, Perkin Elmer) per well on a Topcount scintillation apparatus (Perkin Elmer).

hNPFFR2 = target: T4, hNPFFR2 (Homo sapiens, UniProt Q9Y5X5); test: cAMP measurement (forskolin-stimulated cAMP accumulation) in CHO cells expressing SF-hNPFFR2; assay type: cell-based; conditions: antagonism of NPFF, Schild analysis; S.E.M. below 15%
T4 construct: The cDNA encoding the full-length human NPFFR1 and human NPFFR2; expressed in transfected cells
Experimental: (§3) Functional coupling of SF-hNPFFR1 and SF-hNPFFR2 to adenylyl cyclase was assessed by measuring the inhibitory effects of agonist/antagonist and related compounds on forskolin-stimulated cAMP accumulation in CHO cells stably expressing both receptors as previously described (Gicquiaux et al., 2001) with minor modifications. Briefly, 80% confluent CHO cells expressing SF-hNPFFR1 or SF-hNPFFR2 were harvested and seeded in 96-well plates at an initial density of 10,000 cells per well. After 1-2 days of culture (90% confluency), cells were washed with 0.2 ml of PBS (in mM: 137 NaCl, 2.7 KCl, 0.9 CaCl2, 0.5 MgCl2, 6.5 Na2HPO4, 1.5 KH2PO4, pH 7.2), and then incubated at 37°C for 10 min with 0.2 ml assay buffer (in mM: 150 NaCl, 5 KCl, 2.5 CaCl2, 1.2 KH2PO4, 1.2 MgSO4, 25 NaHCO3, 10 HEPES, 10 mg/ml BSA, pH 7.4). After removal of buffer, 0.06 ml of fresh buffer containing 1 mM 3-isobutyl-1-methyl-xanthine (IBMX) was added for 10 min and cells were exposed to 10 µM forskolin without and with compounds (10^-10-10^-5 M) for 10 min at 37 °C in a final volume of 0.1 ml. The reaction was stopped by addition of 0.04 ml volume ice-cold 0.5 M HCl and cells were frozen (-80°C 1 hour) disrupted by sonication and suspensions were centrifuged at 2,000 × g for 15 min. The resulting supernatants were stored at -20°C until determination of cAMP by radioimmunoassay as described (Cailla et al., 1973). […]

hNPFFR1 [5] = target: T3, hNPFFR1; test: cAMP measurement (forskolin-stimulated cAMP accumulation) in CHO cells expressing SF-hNPFFR1; assay type: cell-based; conditions: antagonism of NPVF, Schild analysis; S.E.M. below 15%
Experimental: as §3

[6] = test system: hyperalgesia induced by administration of opiate analgesics; conditions: rat, in vivo; cited from earlier work

T2 sequence (Q9GZQ6 whole entry): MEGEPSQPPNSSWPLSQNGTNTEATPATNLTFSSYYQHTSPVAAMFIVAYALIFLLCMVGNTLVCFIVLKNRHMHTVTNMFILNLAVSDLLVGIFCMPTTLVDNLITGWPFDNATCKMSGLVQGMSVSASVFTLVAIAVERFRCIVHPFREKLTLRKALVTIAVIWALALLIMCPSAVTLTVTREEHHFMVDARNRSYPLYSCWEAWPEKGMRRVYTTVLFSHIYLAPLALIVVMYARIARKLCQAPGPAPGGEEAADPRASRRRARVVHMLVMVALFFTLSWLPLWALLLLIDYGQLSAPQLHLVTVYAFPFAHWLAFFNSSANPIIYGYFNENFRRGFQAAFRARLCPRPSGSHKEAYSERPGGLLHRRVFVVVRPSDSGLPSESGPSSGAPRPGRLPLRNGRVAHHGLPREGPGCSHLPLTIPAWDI
T3 sequence (Q9GZQ6 whole entry): as above
T1 sequence (Q9Y5X5 whole entry): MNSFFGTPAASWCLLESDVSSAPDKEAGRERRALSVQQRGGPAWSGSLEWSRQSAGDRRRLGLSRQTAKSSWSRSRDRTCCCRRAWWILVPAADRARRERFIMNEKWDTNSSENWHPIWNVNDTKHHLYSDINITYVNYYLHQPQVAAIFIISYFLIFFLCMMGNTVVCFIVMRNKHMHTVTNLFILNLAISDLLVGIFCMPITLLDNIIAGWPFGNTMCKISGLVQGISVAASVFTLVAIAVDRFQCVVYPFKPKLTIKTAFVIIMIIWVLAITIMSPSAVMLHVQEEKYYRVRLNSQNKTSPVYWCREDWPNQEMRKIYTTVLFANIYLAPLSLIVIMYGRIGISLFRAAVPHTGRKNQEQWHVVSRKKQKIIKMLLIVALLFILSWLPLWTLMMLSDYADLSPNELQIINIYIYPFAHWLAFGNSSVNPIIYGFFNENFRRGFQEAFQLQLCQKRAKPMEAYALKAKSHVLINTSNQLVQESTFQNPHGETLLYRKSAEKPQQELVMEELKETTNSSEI
T4 sequence (Q9Y5X5 whole entry): as above

## O=C(N[C@@H](CCCN1CCCCC1)C(=O)NCCc1ccccc1)c1ccccc1-c1ccccc1 [Compound 26, (2S)-N-(2-phenylethyl)-2-[(2-phenylphenyl)formamido]-5-(piperidin-1-yl)pentanamide]
hNPFF2; [3H]-FFRF-NH2 radioligand, unit µM printed with the value, read-out: Ki NPFF2
  Ki: > 13 µM
hNPFF2; in words
  affinity for NPFFR2: very low affinity
hNPFF1; [3H]-FFRF-NH2 radioligand, mean of at least two experiments, read-out: Ki NPFF1
  Ki: 60 nM and 65 nM
hNPFF1; in words
  affinity for NPFFR1: good affinity
[1]; oral, low dose of 1 mg/kg
  in vivo activity after oral administration: highly satisfactory in vivo activity
[1]; rat, single 0.5 mg/kg dose, i.p.
  hyperalgesia induced by administration of fentanyl: blocks
[1]; 0.5 mg/kg subcutaneously
  fentanyl-induced hyperalgesia: completely abolished
[1]; 3 mg/kg orally
  fentanyl-induced hyperalgesia: completely abolished
[1]; orally 0.3, 1 and 3 mg/kg
  development of fentanyl-induced hyperalgesia: dose-dependently prevented
[1]; subcutaneously 0.05, 0.1 and 0.5 mg/kg
  development of fentanyl-induced hyperalgesia: dose-dependently prevented
[2]
  increase in inflammatory hyperalgesia induced by prior fentanyl injection: completely prevented
hNPFFR1 [3]; read-out: pA2 value for hNPFFR1 (converted)
  Kb: 977 nM
hNPFFR1 [3]; tested alone, up to 50 µM
  decrease of forskolin-stimulated cAMP accumulation: did not decrease
hNPFFR1 [4]
  stimulation of the binding of [35S]GTPgS: did not stimulate

## O=C(CCCNC(=O)c1ccccc1)N[C@@H](CCCN1CCC(Cc2ccccc2)CC1)C(=O)NCCc1ccccc1 [Compound 46, (2S)-5-(4-benzylpiperidin-1-yl)-N-(2-phenylethyl)-2-[4-(phenylformamido)butanamido]pentanamide]
hNPFF2; 0.7 µM (footnote e)
  inhibition at 0.7 µM: 4%
hNPFF2; 7 µM (footnote d)
  inhibition at 7 µM: 39%
hNPFF1; 0.7 µM (footnote e)
  inhibition at 0.7 µM: 35%
hNPFF1; 7 µM (footnote d)
  inhibition at 7 µM: 59%

## N^α-adamantan-1-yl-L-Arg-L-Phe-NH2 acetate [RF9]
hNPFFR2
  pA2 for hNPFFR2: 6,65
hNPFFR1 [5]
  pA2 value for hNPFFR1: 6.47
[6]
  activity on hyperalgesia induced by repeated administration of opiate analgesics: antihyperalgesic activity
